Laboratory results as given in paper PMC8909805, “Anticancer Activity of (S)-5-Chloro-3-((3,5-dimethylphenyl)sulfonyl)-N-(1-oxo-1-((pyridin-4-ylmethyl)amino)propan-2-yl)-1H-indole-2-carboxamide (RS4690), a New Dishevelled 1 Inhibitor” (Cancers, 2022).
“Also recorded” adds a separate entry of the source.

Key:
[1] = test system: SW620 cells; test: Cell growth inhibition, XTT assay, SW620; assay type: cell-based; settings: Homo sapiens, SW-620; incubation time 72 h
Description: Cell viability was evaluated by XTT [35] (SW480 and SW620 cells) or MTT [36] (HEK293 and HCT116 cells) colorimetric assays. Briefly, cells (range 10–30 × 10^3 cells/well) were seeded in 96-well microculture plates and then exposed to increasing concentrations of different compounds (range 0–300 µM) for 48 or 72 h. At the end of the treatment, media were removed and incubated at 37 °C in the dark for 4 h in phosphate-buffered saline (PBS) containing 0.2 mg/mL of sodium 3′-[1-[(phenylamino)-carbonyl]-3,4-tetrazolium]-bis(4-methoxy-6-nitro)benzene-sulfonic acid hydrate (XTT) (Thermo Fisher Scientific, Waltham, MA, USA) or (3-[4,5-dimethylthiazol-2-yl]-2,5 diphenyl tetrazolium bromide (MTT) (Merck, Kenilworth, NJ, USA) and phenazine methosulfate (PMS) at a final concentration of 25 µM. Absorbance at 450 nm and a reference wavelength of 650 nm was then measured using a microplate spectrophotometer (Multiskan FC Microplate Photometer, Thermo Scientific, Waltham, MA, USA). The cell growth inhibition rate was calculated utilizing the following formula: inhibition rate (%) = […], where Control OD is absorbance of negative control and Sample OD is absorbance of the test sample. The IC50 values were determined with GraphPad Prism 5 through constructed dose-response curves.
In vitro cultures of colon cancer cells often present mutations either in the APC gene or in the β-catenin gene. […] Two of these cell lines, colon cancer SW480 and SW620 cells, were used in dose-response experiments. […] We thus tested their growth inhibitory activity on the colon cancer cell line HCT116. In terms of APC and β-catenin, these represent the wt counterparts of SW480 and […]. HCT116 cells express wt APC and are heterozygous for β-catenin, harboring one wild type and one mutant (Ser45del) allele. WNT pathway activity and the survival of HCT116 cells thus depend on DVL and can be affected by FZD and DVL inhibitors. […]

[2] = target: T1, NHERF1 PDZ1 domain (Homo sapiens, UniProt O14745); test: Inhibition of the NHERF1 PDZ1 domain; assay type: binding; settings: data not shown
T1 sequence (O14745 14-94 limits assumed): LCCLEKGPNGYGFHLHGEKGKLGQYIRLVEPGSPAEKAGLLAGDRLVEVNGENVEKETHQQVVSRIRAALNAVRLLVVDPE

[3] = target: T2, DVL1 PDZ domain (Homo sapiens, UniProt O14640); test: Equilibrium (FRET) competition binding between DVL1 PDZ domain and dansylated TMEM88 C-terminal peptide; settings: compound at 5 µM
T2 sequence (O14640 251-323 limits assumed): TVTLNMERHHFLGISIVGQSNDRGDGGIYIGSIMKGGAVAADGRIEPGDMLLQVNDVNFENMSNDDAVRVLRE
Description: Equilibrium binding experiments were performed on a Fluoromax-4 single photon counting spectrofluorometer (Jobin-Yvon, NJ, USA). The buffer used was sodium phosphate 50 mM, DMSO 20% v/v, pH 7.2, and the temperature was set at 25 °C. […] Experiments were performed in the absence and in the presence of 1 µM and 5 µM constant concentration of (S)-2 or (R)-1 enantiomers. Normalized fluorescence collected at 540 nm was fitted using a hyperbolic function.

[4] = test system: WNT/β-catenin pathway; test: Inhibition of TCF/LEF (WRE-GFP reporter) activity in HEK293 cells expressing HA-FZD4; assay type: cell-based; settings: Homo sapiens, HEK293, 48 h, 48 h treatment, read-out: EC50 ± SD WNT Pathway Inhibition
Description: Briefly, Hek293 cells were seeded on black 96-well Optiplates (PerkinElmer, Waltham, MA, USA) at a density of 5 × 10^3/well. After seeding for 16–24 h, cells were co-transfected with the cDNA coding for HA-FZD4 (0.04 µg/well) as well as with the reporter construct WRE-GFP (0.04 µg/well) using Lipofectamine. Hek293 cells were plated and treated with different dilutions of compounds 2, (S)-2 or (R)-1 for 48 h before being fixed and analyzed under a fluorescence microscope. Inhibition of WRE activity was measured by counting the percentage of GFP positive cells. Experiments were performed in triplicate and the standard deviations are indicated.
The activity of the compounds was further assayed in HEK293 cells transiently expressing both HA-FZD4 and the WNT reporter construct WRE-GFP (25). The latter presents the coding sequence of GFP under the control of an optimized WNT responsive element (WRE-wt). When WRE-GFP is transiently transfected in cells, it promotes GFP transcription and translation. The amount of GFP produced by each cell (and thus overall cell-fluorescence) depends on the intracellular levels of WNT pathway activity (Figure 5).

[5] = test system: HCT116 cells; test: ROS quantification with DCFDA probe in HCT116 cells; assay type: cell-based, human; settings: 48 h treatment, increasing concentrations; % of DMSO control
Description: HCT116 cells were grown in RPMI-1640 medium (Corning) containing 2 mM L-glutamine and supplemented with 100 IU/mL penicillin/streptomycin and 10% fetal bovine serum (FBS; Sigma-Aldrich, St Louis, MO, USA). HCT116 cells were treated in 96-well-black plates for 48 h with increased concentrations of […]. Quantification of ROS production was measured using 20 μM of the fluorescent probe 2′,7′-dichlorodihydrofluorescein diacetate DCFDA (Sigma Aldrich). The relative fluorescence emission was followed at 520 nm using VICTOR plate reader (VICTOR™ Multilabel Counter, Perkin Elmer) and was normalized to total protein content using BCA test. Total ROS production was presented as percentage with respect to the control (DMSO treated cells) that was set as 100%. Statistical analysis was performed using one-way ANOVA followed by the Bonferroni post hoc comparison test. p < 0.05 was considered significant. Data are representative of three independent experiments with similar results.
Reactive oxygen species (ROS) play important roles in cell growth and differentiation, metabolism and apoptosis. […] We measured the ability of compounds (S)-1 and (R)-1 to generate ROS in HCT116 cells using the fluorescent probe 2′,7′-dichlorodihydrofluorescein diacetate DCFDA. The ROS production (%) upon 48 h treatment was determined with increasing concentrations of (S)-1 or (R)-1. […]

EC50 [1] | Effect on binding between DVL1 PDZ and TMEM88 peptide [3] | EC50 [4] | Compound | Inhibition of NHERF1 PDZ1 domain [2] | ROS production [5]
54.8 ± 1.9 µM | abolished the binding | 19.49 ± 0.06 µM | Cc1cc(C)cc(S(=O)(=O)c2c(C(=O)N[C@H](C)C(=O)NCc3ccncc3)[nH]c3ccc(Cl)cc23)c1 [(R)-1] | did not show inhibitory activity; also recorded: did not bind | 
45.9 ± 2 µM | abolished the binding |  | Cc1cc(C)cc(S(=O)(=O)c2c(C(=O)N[C@@H](C)C(=O)NCc3ccncc3)[nH]c3ccc(Cl)cc23)c1 [(S)-1, (S)-5-Chloro-3-((3,5-dimethylphenyl)sulfonyl)-N-(1-oxo-1-((pyridin-4-ylmethyl)amino)propan-2-yl)-1H-indole-2-carboxamide] | did not show inhibitory activity; also recorded: did not bind | high level of ROS production; also recorded: superior to (R)-1 at any tested compound concentration; also recorded: higher level of ROS production
38.5 ± 1.6 µM |  | 3.46 ± 0.07 µM | Cc1cc(C)cc(S(=O)(=O)c2c(C(=O)NC(C)C(=O)NCc3ccncc3)[nH]c3ccc(Cl)cc23)c1 (stereo not shown) [Compound 1] |  | 
